{"source": "patent US9523691B2", "about": "“Use of the olfactomedin-4 protein (OLFM4) in colorectal cancer diagnosis” (INSTITUT DE CANCEROLOGIE DE L'OUEST, priority 2011, dated 2016)", "tested_on": "wild type HCT116 cells", "experiment": "Clonogenic cell survival assay, OLFM4 added to the medium with genotoxic treatment", "assay_type": "cell-based, human", "settings": "10 days", "protocol": "The influence of OLFM4 following genotoxic treatments in HCT116 OLFM4 inducible cells was evaluated by clonogenic assay. Cells were incubated with 50 ng/ml of doxycyclin, and then 24 hr later treated with oxaliplatin or sn38 at the indicated concentration for 10 days. The colonies were stained with crystal violet and counted by QuantityOne software (Biorad). B. OLFM4 overexpressed in COS7 cells, was added at approximately 3 ng/ml to oxaliplatin and sn38 treatment in the wild type HCT116 cells for 10 days. The colonies were stained and count as above. The histograms shown are representative of three individual experiments.\nThe human colon adenocarcinoma cell line HCT116 (American Type Culture Collection, ATCC) were maintained in antibiotic-free RPMI 1640 medium (Lonza). Cultures were supplemented with 10% fetal bovine serum. […]\nHCT116 stable OLFM4 cells were seeded at 300 cells into 6 well cell culture plates with RPMI 1640 medium supplement with 3% fetal bovine serum and incubated at 37° C. in a 5% CO2 atmosphere. […] The number of colonies exceeding 50 cells was visualized with a Bio-Rad Chemi Doc XRS Imaging device and counted using Quantity One imaging software (Bio-Rad). The survival fraction was determined as the ratio of the number of colonies observed without doxycycline to the number of cells with doxycycline, adjusted to the plating efficiency."}
{"substance": "OLFM4: Secreted N-glycosylated protein of 510 residues, overexpressed in COS7 cells and added to culture medium", "values": [{"measurement": "resistance to oxaliplatin (colony survival, clonogenic assay)", "setting": "OLFM4 overexpressed in COS7 cells added at approximately 3 ng/ml to oxaliplatin treatment", "value": "promotes resistance"}, {"measurement": "resistance to sn38 (colony survival, clonogenic assay)", "setting": "OLFM4 overexpressed in COS7 cells added at approximately 3 ng/ml to sn38 treatment", "value": "promotes resistance"}]}
